In patent US11878966B2, “Substituted 4-benzyl and 4-benzoyl piperidine derivates” (89BIO LTD, priority 2015, dated 2024):

What was measured:
[1] = biological target: T1, recombinant human baculovirus-expressed GST-tagged FASN (Homo sapiens, UniProt P49327); test: FASN enzyme activity assay: fluorescence-based detection of CoA with CPM; assay type: biochemical; conditions: 5 nM FASN, 150 μM NADPH, 10 μM acetyl-CoA, 25 μM malonyl-CoA, 90 minutes incubation
T1 construct: GST; host or cells: baculovirus expression system (insect cells implied)
Method in brief: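 GST-tagged human FASN (5 nM, baculovirus-expressed) in 50 mM HEPES pH 7.5 with 150 μM NADPH, 10 μM acetyl-CoA and 25 μM malonyl-CoA, 0.5% DMSO, started with malonyl-CoA and run 90 min. CoA was detected with CPM (30 min; ex 390/em 530 nm). IC50 came from sigmoidal variable-slope fits of % inhibition.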

T1 sequence (P49327 whole entry): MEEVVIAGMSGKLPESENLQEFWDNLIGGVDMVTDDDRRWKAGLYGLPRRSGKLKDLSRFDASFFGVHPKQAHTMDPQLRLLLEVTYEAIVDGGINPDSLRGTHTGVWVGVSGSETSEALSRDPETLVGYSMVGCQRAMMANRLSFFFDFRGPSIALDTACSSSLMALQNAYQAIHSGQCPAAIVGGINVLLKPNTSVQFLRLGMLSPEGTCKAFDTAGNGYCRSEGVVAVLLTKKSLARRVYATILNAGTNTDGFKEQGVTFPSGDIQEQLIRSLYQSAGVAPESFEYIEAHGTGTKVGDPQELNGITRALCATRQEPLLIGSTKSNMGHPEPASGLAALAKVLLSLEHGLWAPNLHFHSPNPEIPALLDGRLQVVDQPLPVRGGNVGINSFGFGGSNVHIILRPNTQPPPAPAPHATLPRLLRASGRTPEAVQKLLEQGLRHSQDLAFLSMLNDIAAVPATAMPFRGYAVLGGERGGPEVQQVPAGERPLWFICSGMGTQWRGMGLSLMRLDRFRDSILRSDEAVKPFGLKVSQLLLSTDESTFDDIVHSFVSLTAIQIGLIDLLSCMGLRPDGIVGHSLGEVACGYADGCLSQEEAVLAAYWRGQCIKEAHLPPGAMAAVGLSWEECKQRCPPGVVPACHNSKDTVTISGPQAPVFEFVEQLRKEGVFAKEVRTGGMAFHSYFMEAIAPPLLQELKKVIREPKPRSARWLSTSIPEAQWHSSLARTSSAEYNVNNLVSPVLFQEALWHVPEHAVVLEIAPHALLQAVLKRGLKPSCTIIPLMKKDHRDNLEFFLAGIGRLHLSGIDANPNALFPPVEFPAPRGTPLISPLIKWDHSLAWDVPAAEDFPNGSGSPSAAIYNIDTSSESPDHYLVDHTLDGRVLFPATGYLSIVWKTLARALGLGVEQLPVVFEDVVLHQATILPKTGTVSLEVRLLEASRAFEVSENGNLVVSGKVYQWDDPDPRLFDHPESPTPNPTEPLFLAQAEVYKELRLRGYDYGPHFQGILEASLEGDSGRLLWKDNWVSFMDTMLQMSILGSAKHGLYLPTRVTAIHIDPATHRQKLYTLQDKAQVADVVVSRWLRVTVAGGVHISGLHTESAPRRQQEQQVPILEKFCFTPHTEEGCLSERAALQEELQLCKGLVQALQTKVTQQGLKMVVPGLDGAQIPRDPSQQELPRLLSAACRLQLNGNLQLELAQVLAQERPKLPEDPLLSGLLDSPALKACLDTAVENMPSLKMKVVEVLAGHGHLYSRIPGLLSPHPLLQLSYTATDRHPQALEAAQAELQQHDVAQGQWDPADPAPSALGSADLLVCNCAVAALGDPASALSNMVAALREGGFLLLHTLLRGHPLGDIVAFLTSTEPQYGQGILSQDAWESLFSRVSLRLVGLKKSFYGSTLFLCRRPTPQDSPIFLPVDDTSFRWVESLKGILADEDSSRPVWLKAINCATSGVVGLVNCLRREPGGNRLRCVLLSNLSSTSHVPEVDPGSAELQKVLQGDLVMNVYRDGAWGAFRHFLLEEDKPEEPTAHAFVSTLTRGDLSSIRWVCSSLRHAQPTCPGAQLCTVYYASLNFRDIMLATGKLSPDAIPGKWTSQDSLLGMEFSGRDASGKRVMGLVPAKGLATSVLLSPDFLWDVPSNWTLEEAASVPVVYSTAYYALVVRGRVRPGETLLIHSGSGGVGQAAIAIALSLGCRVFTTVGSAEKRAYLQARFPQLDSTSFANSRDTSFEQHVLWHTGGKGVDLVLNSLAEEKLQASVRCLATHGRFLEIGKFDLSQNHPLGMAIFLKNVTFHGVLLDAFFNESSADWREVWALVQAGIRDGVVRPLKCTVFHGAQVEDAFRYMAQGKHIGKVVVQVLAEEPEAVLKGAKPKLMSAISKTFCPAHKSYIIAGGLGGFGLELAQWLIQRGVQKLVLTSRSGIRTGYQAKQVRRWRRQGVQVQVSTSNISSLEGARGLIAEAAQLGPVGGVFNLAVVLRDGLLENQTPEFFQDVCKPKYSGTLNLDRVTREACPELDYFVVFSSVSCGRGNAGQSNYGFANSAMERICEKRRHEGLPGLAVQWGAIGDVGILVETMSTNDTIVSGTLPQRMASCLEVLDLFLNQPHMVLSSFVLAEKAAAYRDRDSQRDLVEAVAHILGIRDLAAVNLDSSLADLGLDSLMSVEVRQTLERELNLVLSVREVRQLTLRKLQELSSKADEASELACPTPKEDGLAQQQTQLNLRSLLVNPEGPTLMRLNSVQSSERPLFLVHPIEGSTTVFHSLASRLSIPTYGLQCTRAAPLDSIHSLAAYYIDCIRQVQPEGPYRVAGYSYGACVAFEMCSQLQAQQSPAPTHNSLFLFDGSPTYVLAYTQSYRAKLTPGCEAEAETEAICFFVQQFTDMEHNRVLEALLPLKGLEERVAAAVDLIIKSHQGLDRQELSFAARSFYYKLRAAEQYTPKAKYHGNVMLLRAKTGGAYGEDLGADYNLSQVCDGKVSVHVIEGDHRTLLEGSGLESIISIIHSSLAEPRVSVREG

SMILES	melting point [°C]	IC50 [1] [nM]
COc1c(-c2ccc(CC3(C#N)CCN(C(=O)[C@H]4CCCO4)CC3)cc2)ccc2cccnc12 [Example 91, 4-[4-(8-Methoxyquinolin-7-yl)-benzyl]-1-((R)-tetrahydrofuran-2-carbonyl)-piperidine-4-carbonitrile]	102 to 105	1 to 99
CCC(=O)N1CCC(C(C)c2ccc(-c3ccc4c(c3)NCCC4)cc2)CC1 (centres unmarked) [Example 38, 1-(4-(1-(4-(1,2,3,4-tetrahydroquinolin-7-yl)phenyl)ethyl)piperidin-1-yl)propan-1-one]	169 to 171	1000 to 10000
CCC(=O)N1CCC(O)(Cc2ccc(-c3ccc4occc4c3)cc2)CC1 [Example 152, 1-(4-(4-(benzofuran-5-yl)benzyl)-4-hydroxypiperidin-1-yl)propan-1-one]	76	1000 to 10000
CCC(=O)N1CCC(O)(Cc2ccc(-c3ccc4cnccc4c3)cc2)CC1 [Example 160, 1-(4-hydroxy-4-(4-(isoquinolin-6-yl)benzyl)piperidin-1-yl)propan-1-one]	94	100 to 999
CC(C)C(=O)N1CCC(O)(Cc2ccc(-c3cc4ccccc4o3)cc2)CC1 [Example 157, 1-(4-(4-(benzofuran-2-yl)benzyl)-4-hydroxypiperidin-1-yl)-2-methylpropan-1-one]	203	1000 to 10000
CCC(=O)N1CCC(O)(Cc2ccc(-c3ccc4cccnc4c3)cc2)CC1 [Example 150, 1-(4-hydroxy-4-(4-(quinolin-7-yl)benzyl)piperidin-1-yl)propan-1-one]	171	100 to 999
CC(C)C(=O)N1CCC(O)(Cc2ccc(-c3ccc4occc4c3)cc2)CC1 [Example 153, 1-(4-(4-(benzofuran-5-yl)benzyl)-4-hydroxypiperidin-1-yl)-2-methylpropan-1-one]	129	1000 to 10000
